Reference: US20100267712A1, “ISOINDOLINE COMPOUNDS FOR THE TREATMENT OF SPINAL MUSCULAR ATROPHY AND OTHER USES” (The United States of America, as represented by the …, priority 2007, published 2010)
Structures can show the parent of a compound that is named as a salt.

Key:
[1] = test system: SMN2-linked luciferase-reporter gene construct; experiment: SMN Splice Reporter Assay (SMN2-linked luciferase reporter); assay type: cell-based; details: for EC50: cervical carcinoma cell lines, SMN2 splice luciferase reporter; for Fold Increase: fold-increase of luciferase over baseline reading of transformed cells without any test compound
Summary of the method: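 Cervical carcinoma cells carrying an SMN2-luciferase splicing reporter, in-frame only with exon 7 inclusion, were treated with compound. Luciferase activity reported as fold increase over untreated transformed cells, with EC50 derived.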

[2] = test system: translational stop codon read-through, human SMN2 open reading frame-luciferase; experiment: Translational read-through luciferase reporter assay (luciferase preceded by the open reading frame of the human SMN2 gene); assay type: cell-based
Text: This assay was similar in design to that described in WO 01/44516 A2. This was a cell-based luciferase reporter assay designed to detect translational read-through via insertion of a translational stop codon within the coding sequence that includes luciferase. In the presence of compounds that promote read-through of translational stop codons, active luciferase was produced and detected via chemiluminescence. Compounds of the invention typically were active in three versions of this assay: luciferase reporter containing a UGA stop codon, luciferase reporter containing a UAG stop codon, which is the first stop codon downstream of the improper splice junction between exons 6 and 8 in the human SMN2 transcript, and luciferase preceded by the open reading frame of the human SMN2 gene.

Row | SMILES | melting point | EC50 [1] [nM] | EC50 [2] [nM] | Fold Increase [1] | maximal fold induction [2]
1 | O=C1c2cc(O)ccc2CN1c1ccc2sccc2c1 [Example 26, 2-(benzo[b]thiophen-5-yl)-6-hydroxyisoindolin-1-one] | 226 to 228 °C |  |  |  | 
2 | COc1ccc2c(c1)C(=O)N(c1ccc3c(ccn3C)c1)C2 [Example 1, 6-methoxy-2-(1-methyl-1H-indol-5-yl)isoindolin-1-one] | 193 to 197 °C |  |  |  | 
3 | CC(=O)Nc1cccc2c1CN(c1ccc3ccn(C)c3c1)C2=O [Example 21, N-(2-(1-methyl-1H-indol-6-yl)-1-oxoisoindolin-4-yl)acetamide] | 180 to 184 °C |  |  |  | 
4 | Cn1ccc2cc(N3Cc4c(N)cccc4C3=O)ccc21 [Example 9, 4-amino-2-(1-methyl-1H-indol-5-yl)isoindolin-1-one] | 198 to 203 °C |  |  |  | 
5 | COc1ccc2c(c1)CN(c1ccc3c(ccn3C)c1)C2 [Example 19, 5-(5-methoxyisoindolin-2-yl)-1-methyl-1H-indole] | 193 to 196 °C |  |  |  | 
6 | COc1ccc2c(c1)C(=O)N(c1ccc3ccn(CCN)c3c1)C2 (as salt: hydrochloride) [Example 23, 2-(1-(2-aminoethyl)-1H-indol-6-yl)-6-methoxyisoindolin-1-one hydrochloride] | 280 to 282 °C (dec.) |  |  |  | 
7 | CCOc1ccc2c(c1)C(=O)N(c1ccc3c(ccn3C)c1)C2 [Example 6, 6-ethoxy-2-(1-methyl-1H-indol-5-yl)isoindolin-1-one] | 185 to 190 °C |  |  |  | 
8 | Cn1ccc2cc(N3Cc4ccc(OCC(F)(F)F)cc4C3=O)ccc21 [Example 7, 2-(1-methyl-1H-indol-5-yl)-6-(2,2,2-trifluoroethoxy)isoindolin-1-one] | 182 to 188 °C |  |  |  | 
9 | COc1ccc2c(c1)C(=O)N(c1ccc3ccn(CC#N)c3c1)C2 [Example 22, 2-(6-(6-methoxy-1-oxoisoindolin-2-yl)-1H-indol-1-yl)acetonitrile] | 218 to 220 °C |  |  |  | 
10 | Cn1ccc2cc(N3Cc4ccc(OC(F)(F)Br)cc4C3=O)ccc21 [Example 3, 6-(bromodifluoromethoxy)-2-(1-methyl-1H-indol-5-yl)isoindolinl-one] | 185 to 186 °C |  |  |  | 
11 | CC(=O)Nc1cccc2c1CN(c1ccc3c(ccn3C)c1)C2=O [Example 10, N-(2-(1-methyl-1H-indol-5-yl)-1-oxoisoindolin-4-yl)acetamide] | 239 to 243 °C |  |  |  | 
12 | Cn1ccc2ccc(N3Cc4ccc(-c5cccnc5)cc4C3=O)cc21 [Example 24, 2-(1-methyl-1H-indol-6-yl)-6-(pyridin-3-yl)isoindolin-1-one] | 187 to 188 °C |  |  |  | 
13 | COc1ccc2c(c1)C(=O)N(c1ccc3ccn(C)c3c1)C2 [Example 20, 6-methoxy-2-(1-methyl-1H-indol-6-yl)isoindolin-1-one] | 158 to 161 °C |  |  |  | 
14 | CCC(C)c1ccc2c(c1)C(=O)N(c1ccc3c(ccn3C)c1)C2 (stereo not shown) [Example 15, 6-sec-butyl-2-(1-methyl-1H-indol-5-yl)isoindolin-1-one] | 146 to 147 °C |  |  |  | 
15 | Cn1ccc2cc(N3Cc4ccc(N5CCCC5)cc4C3=O)ccc21 [Example 16, 2-(1-methyl-1H-indol-5-yl)-6-(pyrrolidin-1-yl)isoindolin-1-one] | 252 to 253 °C |  |  |  | 
16 | CCCCc1ccc2c(c1)C(=O)N(c1ccc3c(ccn3C)c1)C2 [Example 13, 6-butyl-2-(1-methyl-1H-indol-5-yl)isoindolin-1-one] | 167 to 168 °C |  |  |  | 
17 | Cn1ccc2cc(N3Cc4ccc(O)cc4C3=O)ccc21 [Example 5, 6-hydroxy-2-(1-methyl-1H-indol-5-yl)isoindolin-1-one] | 230 to 235 °C |  |  |  | 
18 | COc1ccc2c(c1)CN(c1ccc3sccc3c1)C2=O [Example 25, 2-(benzo[b]thiophen-5-yl)-5-methoxyisoindolin-1-one] | 183 to 186 °C |  |  |  | 
19 | Cn1ccc2cc(N3Cc4ccc(Br)cc4C3=O)ccc21 [Example 11, 6-bromo-2-(1-methyl-1H-indol-5-yl)isoindolin-1-one] | 235 to 237 °C |  |  |  | 
20 | CC(=O)Nc1ccc2c(c1)C(=O)N(c1ccc3c(ccn3C)c1)C2 [Example 8, N-(2-(1-methyl-1H-indol-5-yl)-3-oxoisoindolin-5-yl)acetamide] | 275 to 280 °C |  |  |  | 

Now from value to compound, other results behind:

Row | melting point | EC50 [1] [nM] | EC50 [2] [nM] | SMILES | Fold Increase [1] | maximal fold induction [2]
21 | 137 to 139 °C |  |  | O=C1c2cc(OC(F)F)ccc2CN1c1ccc2c(c1)CCC2 [Example 50, 6-(difluoromethoxy)-2-(2,3-dihydro-1H-inden-5-yl)isoindolin-1-one] |  | 
22 | 137 to 142 °C |  |  | COc1ccc2c(c1)C(=O)N(c1ccc3c(c1)N(C)CCN3C)C2 [Example 38, 2-(1,4-dimethyl-1,2,3,4-tetrahydroquinoxalin-6-yl)-6-methoxyisoindolin-1-one] |  | 
23 | 204 to 207 °C |  |  | COc1ccc2c(c1)C(=O)N(c1ccc3ncsc3c1)C2 [Example 47, 2-(benzo[d]thiazol-6-yl)-6-methoxyisoindolin-1-one] |  | 
24 | 205 to 210 °C |  |  | COc1ccc2c(c1)C(=O)N(c1cc3ccn(C)c3cn1)C2 [Example 42, 6-methoxy-2-(1-methyl-1H-pyrrolo[2,3-c]pyridin-5-yl)isoindolin-1-one] |  | 
25 | 213 to 214 °C |  |  | COc1ccc2c(c1)C(=O)N(c1ccc3c(cnn3C)c1)C2 [Example 44, 6-methoxy-2-(1-methyl-1H-indazol-5-yl)isoindolin-1-one] |  | 
26 | 109 to 110 °C |  |  | COc1ccc2c(c1)C(=O)N(c1ccc(C(C)C)cn1)C2 [Example 39, 2-(5-isopropylpyridin-2-yl)-6-methoxyisoindolin-1-one] |  | 
27 | 194 to 197 °C |  |  | COc1ccc2c(c1)C(=O)N(c1ccc3ncccc3c1)C2 [Example 32, 6-methoxy-2-(quinolin-6-yl)isoindolin-1-one] |  | 
28 | 220 to 223 °C |  |  | COc1ccc2c(c1)C(=O)N(c1ccc3cccnc3c1)C2 [Example 51, 6-methoxy-2-(quinolin-7-yl)isoindolin-1-one] |  | 
29 | 251 to 255 °C |  |  | COc1ccc2c(c1)C(=O)N(c1ccc3c(ccc[n+]3[O-])c1)C2 [Example 33, 6-(6-methoxy-1-oxoisoindolin-2-yl)quinoline 1-oxide] |  | 
30 | 305 to 310 °C |  |  | COc1ccc2c(c1)C(=O)N(c1ccc3[nH]c(=O)ccc3c1)C2 [Example 34, 6-(6-methoxy-1-oxoisoindolin-2-yl)quinolin-2(1H)-one] |  | 
31 | 233 to 236 °C |  |  | Nc1ccc2c(c1)C(=O)N(c1ccc3ccsc3c1)C2 [Example 29, 6-amino-2-(benzo[b]thiophen-6-yl)isoindolin-1-one] |  | 
32 |  | 9 |  | CC(C)n1ccc2cc(N3Cc4ccc(Cl)cc4C3=O)ccc21 [Example 125094] | 1.256 | 1.16
33 |  | 22 | 220 | COc1ccc2c(c1)C(=O)N(c1ccc3ccoc3c1)C2 [Example 118740] | 1.388 | 1.67
34 | 230 to 234 °C |  |  | COc1ccc2c(c1)C(=O)N(c1ccc3c(ccn3C)n1)C2 [Example 41, 6-methoxy-2-(1-methyl-1H-pyrrolo[3,2-b]pyridin-5-yl)isoindolin-1-one] |  | 
35 |  | 63 | 97700 | Cc1cc2cc(N3Cc4ccc(OC(C)C)cc4C3=O)ccc2n1C [Example 123934] | 1.554 | 1.3
36 |  | 59 | 6030 | COCn1ccc2cc(N3Cc4ccc(OC)cc4C3=O)ccc21 [Example 119658] | 1.42 | 1.19
37 |  | 2060 | 19400 | COc1cc2c(cc1OC)C(=O)N(c1ccc3ccn(C)c3c1)C2 [Example 120594] | 1.561 | 2.08
38 |  | 9 | 4180 | COc1ccc2c(c1)C(=O)N(c1ccc3c(c1)OC(C)(C)O3)C2 [Example 116566] | 1.308 | 1.36
39 | 127 to 129 °C |  |  | CCOc1ccc2c(c1)C(=O)N(c1ccc3sccc3c1)C2 [Example 27, 2-(benzo[b]thiophen-5-yl)-6-ethoxyisoindolin-1-one] |  | 
40 |  | 143 | 1290 | CC(=O)Nc1ccc2c(c1)C(=O)N(c1ccc3c(ccn3C)c1)C2 [Example 122435] | 1.412 | 1.98
41 | 245 to 247 °C |  |  | COc1ccc2c(c1)C(=O)N(c1ccc3nc(C)ncc3c1)C2 [Example 49, 6-methoxy-2-(2-methylquinazolin-6-yl)isoindolin-1-one] |  | 
42 |  | 71 | 2800 | COc1ccc2c(c1)C(=O)N(c1ccc3c(ccn3C(C)C)c1)C2 [Example 119518] | 1.617 | 1.2
43 |  | 14 | 2090 | Cn1ccc2cc(N3Cc4cc5c(cc4C3=O)OCCO5)ccc21 [Example 118275] | 1.484 | 1.28
44 |  | 24 | 667 | COc1ccc2c(c1)C(=O)N(c1ccc3sc(C)cc3c1)C2 [Example 122685] | 1.251 | 1.87
45 |  | 96 | 2960 | Cn1ccc2cc(N3Cc4ccc(Br)cc4C3=O)ccc21 [Example 119521] | 1.491 | 1.56
46 |  | 95 | 2440 | O=C1c2ccccc2CN1c1ccc2c(c1)OCCO2 [Example 116069] | 1.348 | 1.97
47 |  | 1360 | 2650 | COc1ccc2c(c1)C(=O)N(c1ccc3nc(C)ncc3c1)C2 [Example 121924] | 1.489 | 1.66
